Tested on: co-cultured stromal cells
Experiment: EMMA ex vivo platform, co-cultured stroma
Assay type: cell-based
Conditions: highest concentration 20 μM
Description: Figure 7. MA9–060 treatment compromises the survival of patient NDMM and RRMM cells ex vivo. A. Representative viability (live cell imaging) response of CD138^+ cells from NDMM patient (Pt620) cultured and tested in autologous stromal microenvironment in EMMA’s ex vivo platform, exposed to three different concentrations of MA9–060 (0.7, 2.2, 6.7 μM). […] (not shown here – 20 μM). B. Ex vivo EMMA platform assay to quantify the chemosensitivity of primary CD138^+ MM cells plated in a collagen matrix with bone marrow stroma and patient plasma. […] C. […] H. Immunoblot showing levels of indicated proteins in CD138^+ cells isolated from RRMM patients (Pt971, Pt1050). Pt1050 CD138^+ cells were assessed for ULK3-mediated autophagy related proteins (ATGs), following treatment with MA9–060 (1μM at 2 and 6 hours).
402 aspirate cells were enriched for CD138+ expression using Miltenyi (Bergisch Gladbach, Germany)
403 130-051-301 antibody-conjugated magnetic beads. MM cells (CD138+) were seeded in Corning
404 Cell BIND 384 well plates (Corning, NY) with collagen I and previously established human-
405 derived stroma, containing approximately 4000 MM cells and 1000 stromal cells. Each well was
406 filled with 80μL of RPMI 1640 media supplemented with fetal bovine serum (FBS, heat […]
422 images acquired for each well, we quantified non-destructively, and without the need to separate […]

SMILES: Cc1cnc(Nc2ccc(C3CCN(C)CC3)c(F)c2)nc1Nc1ccc(Cl)c(NS(=O)(=O)C(C)(C)C)c1 [MA9060]
- toxicity for co-cultured stromal cells: no toxicity
